Like-named read-outs stand apart in the source and are kept apart here.
Experiment: Effect of different intervals between administration and a meal on pharmacokinetic parameters (three-period crossover, single oral dose)
Type: in vivo, human
Conditions: single oral 7.5 mg; for AUC(0-t) / AUC / Cmax / MRT / Tmax / Vd/F / half-life: male, human, plasma, po, 7.5 mg; for MRT: read-out: MRT Geomean (% CVb); for Tmax: read-out: Tmax Median; for Vd/F: read-out: Vz/F Geomean (% CVb)
Procedure: Embodiment 1: Study on an effect of different intervals between the administration and a meal on pharmacokinetic parameters of a compound represented by Formula I
Diethanolamine salt tablets of the compound represented by Formula I, with specifications of 2.5 mg/table and 5 mg/tablet.
15 healthy adult male subjects were recruited for the trial. They were randomly divided into three trial groups which correspond to three dosing sequences, i.e. ABC, BCA and CAB. A cleaning period is 10 days.
Group A: every subject orally took the test products (one T1: 2.5 mg/tablet and one T2: 5 mg/tablet) once on an empty stomach with 240 mL of room temperature water on the morning of the test. […] They were not allowed to drink water within 1 h before administration and 1 h after administration, but were allowed to drink water as needed for the rest time.
(§1) Group B: every subject orally took the test products (one T1: 2.5 mg/tablet and one T2: 5 mg/tablet) once on an empty stomach with 240 mL of room temperature water on the morning of the test. They ate high-fat and high-calorie standard meals 1 h after administration, needed to stagger the timing of the breakfast and the blood sampling, and needed to finish the breakfast within 30 min. They were not allowed to drink water within 1 h before administration and 1 h after administration, but were allowed to drink water as needed for the rest time.
as §1, with “Group C:” for “Group B:”, “meals 2” for “meals 1”
The high-fat meal: calories: 800 to 1,000 kcal, composed of 150 kcal of protein, 250 kcal of carbohydrates and 500 to 600 kcal of fats, wherein about 50% of the calories come from the fats. The ingredients and proportions of the standard meals needed to be consistent in each test period. The specific administration sequences are shown in a table below. An effect of food on the medicine was analyzed by sampling blood at fixed time points before and after administration and measuring vital signs.
In the test, there were Group A (without a breakfast after administration), Group B (with a high-fat and high-calorie standard meal 1 h after administration) and Group C (with a high-fat and high-calorie standard meal 2 h after administration) which correspond to threes administration sequences, i.e. ABC, BCA and CAB. A non-compartmental model (NCA) of WinNonlin 7.0 version was used to calculate PK parameters according to the actual sampling time, and software of SAS 9.4 version was used to list and make descriptive statistical analysis on the PK parameters. Results of descriptive statistical analysis of the PK parameters of the compound represented by Formula I of the subjects in the groups (Group A, Group B and Group C) with different intervals between the administration and a meal are shown in Table 2.
A mixed-effects model was used to perform analysis of variance (ANOVA) on the PK parameters (Cmax, AUC0-t and AUC0-τ), which are subjected to natural log conversion, of the subjects in the groups with different intervals between administration and a meal by using the software of SAS 9.4 version.

[1] = Group B vs Group A (meal 1 h after administration vs no food)
[2] = Group B vs Group C (meal 1 h vs meal 2 h after administration)
[3] = Group C vs Group A (meal 2 h after administration vs no food)
[4] = food 1 h after administration relative to food 2 h after administration
[5] = food 1 h after administration relative to no food after administration
[6] = food 2 h after administration relative to no food after administration
[7] = Group A, without a breakfast after administration, N = 15
[8] = Group B, high-fat meal 1 h after administration, N = 14
[9] = Group C, high-fat meal 2 h after administration, N = 14

CC1=NN(c2ccc3c(c2)CCCC3)C(=O)/C1=N\Nc1cccc(-c2ccc(C(=O)O)o2)c1O [compound represented by Formula I]
AUC0-t GeoLSM Ratio [1]: 23.65% | AUC0-ē GeoLSM Ratio [1]: 25.37% | Cmax GeoLSM Ratio [1]: 44.01% | AUC0-t GeoLSM Ratio [2]: 66.10% | AUC0-ē GeoLSM Ratio [2]: 65.76% | Cmax GeoLSM Ratio [2]: 78.12% | AUC0-t GeoLSM Ratio [3]: 35.78% | AUC0-ē GeoLSM Ratio [3]: 38.57% | Cmax GeoLSM Ratio [3]: 56.33% | AUC0-τ reduced by [4]: ~34% | Cmax reduced by [4]: about 22% | AUC0-τ reduced by [5]: ~75% | Cmax reduced by [5]: about 56% | AUC0-τ reduced by [6]: ~61% | Cmax reduced by [6]: about 44% | AUC(0-t) (Group A, no food after administration, n 15, mixed-effects ANOVA, read-out: AUC0-t GeoLSM (geometric least squares mean)): 0.857 µg·h/mL | AUC (Group A, no food after administration, n 15, mixed-effects ANOVA, read-out: AUC0-ē GeoLSM (geometric least squares mean)): 0.929 µg·h/mL | Cmax (Group A, no food after administration, n 15, mixed-effects ANOVA, read-out: Cmax GeoLSM (geometric least squares mean)): 0.0351 µg/mL | AUC(0-t) (Group A, without a breakfast after administration, N = 15, read-out: AUC0-t Geomean (% CVb)): 0.857 µg·h/mL | AUC(0-t) (Group A, without a breakfast after administration, N = 15, read-out: AUC0-t Mean SD): 1.04 µg·h/mL | AUC (Group A, without a breakfast after administration, N = 15, read-out: AUC0-ē Geomean (% CVb)): 0.929 µg·h/mL | AUC (Group A, without a breakfast after administration, N = 15, read-out: AUC0-ē Mean SD): 1.11 µg·h/mL | Cmax (Group A, without a breakfast after administration, N = 15, read-out: Cmax Geomean (% CVb)): 0.0351 µg/mL | Cmax (Group A, without a breakfast after administration, N = 15, read-out: Cmax Mean SD): 0.0392 µg/mL | MRT [7]: 32.1 h | Tmax [7]: 7 h | Vd/F [7]: 308 L | half-life (Group A, without a breakfast after administration, N = 15, read-out: t1/2 Geomean (% CVb) (converted)): 26.4 h | half-life (Group A, without a breakfast after administration, N = 15, read-out: t1/2 Mean SD (converted)): 29.3 h | Tmax (Group B, high-fat and high-calorie standard meal 1 h after administration, N = 14): 2 h | AUC(0-t) (Group B, high-fat meal 1 h after administration, N = 14, read-out: AUC0-t Geomean (% CVb)): 0.202 µg·h/mL | AUC(0-t) (Group B, high-fat meal 1 h after administration, N = 14, read-out: AUC0-t Mean SD): 0.314 µg·h/mL | AUC (Group B, high-fat meal 1 h after administration, N = 14, read-out: AUC0-ē Geomean (% CVb)): 0.235 µg·h/mL | AUC (Group B, high-fat meal 1 h after administration, N = 14, read-out: AUC0-ē Mean SD): 0.347 µg·h/mL | Cmax (Group B, high-fat meal 1 h after administration, N = 14, read-out: Cmax Geomean (% CVb)): 0.0154 µg/mL | Cmax (Group B, high-fat meal 1 h after administration, N = 14, read-out: Cmax Mean SD): 0.0211 µg/mL | MRT [8]: 17.4 h | Vd/F [8]: 531 L | half-life (Group B, high-fat meal 1 h after administration, N = 14, read-out: t1/2 Geomean (% CVb) (converted)): 11.6 h | half-life (Group B, high-fat meal 1 h after administration, N = 14, read-out: t1/2 Mean SD (converted)): 13.1 h | AUC(0-t) (Group B, meal 1 h after administration, n 14, mixed-effects ANOVA, read-out: AUC0-t GeoLSM (geometric least squares mean)): 0.203 µg·h/mL | AUC (Group B, meal 1 h after administration, n 14, mixed-effects ANOVA, read-out: AUC0-ē GeoLSM (geometric least squares mean)): 0.236 µg·h/mL | Cmax (Group B, meal 1 h after administration, n 14, mixed-effects ANOVA, read-out: Cmax GeoLSM (geometric least squares mean)): 0.0155 µg/mL | Tmax (Group C, high-fat and high-calorie standard meal 2 h after administration, N = 14): 5.01 h | AUC(0-t) (Group C, high-fat meal 2 h after administration, N = 14, read-out: AUC0-t Geomean (% CVb)): 0.303 µg·h/mL | AUC(0-t) (Group C, high-fat meal 2 h after administration, N = 14, read-out: AUC0-t Mean SD): 0.547 µg·h/mL | AUC (Group C, high-fat meal 2 h after administration, N = 14, read-out: AUC0-ē Geomean (% CVb)): 0.355 µg·h/mL | AUC (Group C, high-fat meal 2 h after administration, N = 14, read-out: AUC0-ē Mean SD): 0.591 µg·h/mL | Cmax (Group C, high-fat meal 2 h after administration, N = 14, read-out: Cmax Geomean (% CVb)): 0.0196 µg/mL | Cmax (Group C, high-fat meal 2 h after administration, N = 14, read-out: Cmax Mean SD): 0.0286 µg/mL | MRT [9]: 21.4 h | Vd/F [9]: 460 L | half-life (Group C, high-fat meal 2 h after administration, N = 14, read-out: t1/2 Geomean (% CVb) (converted)): 15.1 h | half-life (Group C, high-fat meal 2 h after administration, N = 14, read-out: t1/2 Mean SD (converted)): 18.6 h | AUC(0-t) (Group C, meal 2 h after administration, n 14, mixed-effects ANOVA, read-out: AUC0-t GeoLSM (geometric least squares mean)): 0.307 µg·h/mL | AUC (Group C, meal 2 h after administration, n 14, mixed-effects ANOVA, read-out: AUC0-ē GeoLSM (geometric least squares mean)): 0.358 µg·h/mL | Cmax (Group C, meal 2 h after administration, n 14, mixed-effects ANOVA, read-out: Cmax GeoLSM (geometric least squares mean)): 0.0198 µg/mL | % AUCex Geomean (% CVb) [7]: 6.62% | CL/F Geomean (% CVb) [7]: 8.0740 L/h | CL/F Mean SD [7]: 10.4506 L/h | ≅z Geomean (% CVb) [7]: 0.0263 h⁻¹ | % AUCex Geomean (% CVb) [8]: 11.39% | CL/F Geomean (% CVb) [8]: 31.8657 L/h | CL/F Mean SD [8]: 52.4396 L/h | ≅z Geomean (% CVb) [8]: 0.0600 h⁻¹ | % AUCex Geomean (% CVb) [9]: 10.57% | CL/F Geomean (% CVb) [9]: 21.1107 L/h | CL/F Mean SD [9]: 42.1126 L/h | ≅z Geomean (% CVb) [9]: 0.0459 h⁻¹

— patent US20220071961A1, “Dosing Regimen of Bicyclic Substituted Pyrazolone Azo Derivative” (Jiangsu Hengrui Medicine CO., LTD., priority 2019, published 2022)
